Measurements reported in article PMC11612208, “A novel small molecule Enpp1 inhibitor improves tumor control following radiation therapy by targeting stromal Enpp1 expression” (Scientific Reports, 2024).

Tests used:
[1] = molecular target: T1, HepG2 cells that express ENPP1 on their surface (Homo sapiens, UniProt P22413); test: Cellular inhibition of cGAMP hydrolysis on HepG2 cells (cGAMP ELISA); assay type: cell-based; conditions: 100 ng/mL 2'3'-cGAMP, overnight (20 h), read-out: EC50, protection of spiked-in cGAMP from hydrolysis
T1 construct: HepG2 cells that express ENPP1 on their surface; host or cells: HepG2
T1 sequence (P22413 1-925): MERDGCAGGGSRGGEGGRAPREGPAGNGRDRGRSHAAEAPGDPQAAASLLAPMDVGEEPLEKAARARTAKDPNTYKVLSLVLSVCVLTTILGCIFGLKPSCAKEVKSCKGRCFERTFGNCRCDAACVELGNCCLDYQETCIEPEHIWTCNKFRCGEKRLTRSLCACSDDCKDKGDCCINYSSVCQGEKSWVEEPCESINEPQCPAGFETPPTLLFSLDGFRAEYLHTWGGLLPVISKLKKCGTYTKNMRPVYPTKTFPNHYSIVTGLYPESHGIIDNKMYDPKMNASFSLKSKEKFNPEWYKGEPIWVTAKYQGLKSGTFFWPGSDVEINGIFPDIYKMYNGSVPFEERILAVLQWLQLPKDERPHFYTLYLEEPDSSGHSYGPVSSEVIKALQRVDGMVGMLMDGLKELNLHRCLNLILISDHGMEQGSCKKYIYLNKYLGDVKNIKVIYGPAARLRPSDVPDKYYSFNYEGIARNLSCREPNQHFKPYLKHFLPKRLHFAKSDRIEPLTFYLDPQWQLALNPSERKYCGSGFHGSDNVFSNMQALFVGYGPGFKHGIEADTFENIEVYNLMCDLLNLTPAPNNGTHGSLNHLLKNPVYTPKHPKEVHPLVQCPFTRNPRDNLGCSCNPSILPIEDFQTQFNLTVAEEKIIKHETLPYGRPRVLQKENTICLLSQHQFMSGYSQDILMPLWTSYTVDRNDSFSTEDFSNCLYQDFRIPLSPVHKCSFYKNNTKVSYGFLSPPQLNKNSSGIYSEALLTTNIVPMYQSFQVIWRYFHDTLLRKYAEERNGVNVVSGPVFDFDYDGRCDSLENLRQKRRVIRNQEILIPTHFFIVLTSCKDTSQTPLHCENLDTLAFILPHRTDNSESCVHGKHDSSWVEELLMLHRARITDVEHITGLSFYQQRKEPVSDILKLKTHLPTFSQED
Procedure: (§1) Enzymatic inhibition assays were performed by incubating 1.5 nM ENPP1 (R&D Systems cat# 6136-EN-010) with serial dilutions of Vir-3 for 15 minutes at 37 °C in buffer (50mM Tris pH 8.0, 250mM NaCl, 0.5mM CaCl2, 1uM ZnCl2, 1% DMSO) before adding 20 uM 2’3’-cGAMP (Invivogen cat.# tlrl-nacga23). The reaction was incubated for 30 min at 37 °C prior to assessing the generated AMP using the AMP-Glo assay (Promega cat.# V5012). Cellular inhibition of cGAMP hydrolysis was performed using HepG2 cells pre-incubated with serial dilutions of Vir-3 in DMEM + 10% Charcoal stripped FBS for 30 min at 37 °C with 5% CO2. 100 ng/mL of 2’3’-cGAMP was then added to the cells and incubated for 20 h at 37 °C with 5% CO2. Media was then removed and the remaining cGAMP was quantified using a 2’3’-cGAMP ELISA kit (Cayman Chemical cat.# 501700).

[2] = In vivo pharmacokinetics, IV and PO; conditions: mouse
Procedure: For pharmacokinetic analysis, female C57BL6 mice were dosed with Vir-3 by either IV administration or oral gavage or IV administration either once or daily for 5 days. 3 mice were used per time point with staggered groups to cover all times. Blood was collected at 0.25, 0.5, 1, 3-, 5-, 8- and 24-hours post-dose into heparinized tubes. Plasma was prepared from each sample and protein precipitated prior to LC-MS/MS injection. Levels of Vir-3 were quantitated, and data was analyzed using Certara’s Phoenix Winnonlin.

MC38 tumors = test: MC38 tumor model, VIR3 oral gavage +/- 12 Gy focal RT, survival; assay type: in vivo, mouse
Procedure: (§2) Tumors were implanted subcutaneously into the right flank as follows: C57BL/6 2 × 10^5 MC38; BALB/c 2 × 10^5 CT26. When tumors were approximately 5 mm in average diameter at approximately 10–14 days following implantation, mice were randomized to receive treatment with CT-guided radiation using the Small Animal Radiation Research Platform (SARRP) from XStrahl. Dosimetry was performed using Murislice software from XStrahl. The SARRP delivered a single dose of 12 Gy to an isocenter within the tumor using a 10 mm x 10 mm collimator and a 45° beam angle to minimize dose delivery to normal tissues. The Enpp1 inhibitor VIR3 was delivered through oral gavage starting 1 day prior to RT daily for 21 days. Tumors were measured using calipers in two directions and reported as mean tumor diameter. Survival curves were based on an endpoint of tumor diameter of greater than 12 mm in any direction.
To deplete CD8 T cells, 200 µg of depleting anti-CD8b (53 − 5.8, BioXCell, West Lebanon, NH) were administered intraperitoneally. This administration took place one day before the first dose of Vir3, followed by two additional anti-CD8b administrations at 7-day intervals.

CT26 tumors = test: CT26 tumor model in BALB/c mice, VIR3 oral gavage +/- 12 Gy focal RT, survival; assay type: in vivo, mouse; conditions: daily oral gavage for 21 days
Procedure: as §2

[3] = tested on: cDC1 and cDC2 in MC38 tumors; test: Flow cytometry of myeloid infiltration in MC38 tumors; assay type: in vivo, mouse; conditions: 4 days following radiation time point (d18)
Procedure: Analysis of tumor infiltrating myeloid cells was performed as previously described. Briefly, following dissection, tumors were weighed and minced into small fragments, then transferred into C tubes from Miltenyi Biotec containing enzyme digest mix with 250U/mL collagenase IV (Worthington Biochemical, #LS004188), 30U/mL DNase I (Millipore-Sigma, #4536282001), 5mM CaCl2, 5% heat inactivated FBS and HBSS. Tissue was dissociated using a GentleMACS tissue dissociator from Miltenyi Biotech. This was followed by incubation at 37 °C for 30 min with agitation. Enzymatic reactions were quenched using ice cold RPMI containing 10% FBS and 2mM EDTA. Single cell suspensions were then filtered through 100 μm (tumor) or 40 μm (dLN) nylon cell strainers to remove macroscopic debris. Cells were washed and counted for staining. 2 × 10^6 cells were stained with Zombie Aqua Viability Dye from BioLegend (#423102) in PBS for 10 min on ice, then Fc receptors were blocked with anti-CD16/CD32 antibodies from BD Biosciences (2.4G2) for an additional 10 min. After centrifugation, the supernatant was removed and cell were stained with a surface antibody cocktail containing in FACS buffer (PBS, 2mM EDTA, 2% FBS) and Brilliant Stain Buffer Plus from BD Biosciences (#566385) for 20 min on ice. […] Data were analyzed using FlowJo software from Tree Star, v10.7. […]

MC38 and CT26 tumors = test: RNASeq of tumors 4 days following radiation treatment; assay type: in vivo, mouse; conditions: VIR3 treatment
Procedure: Mice were implanted with tumors and randomized to treatment with 12 Gy RT and VIR3 as above. 4d following RT, the tumors were harvested, debulked and immediately flash frozen by rapid immersion in liquid nitrogen. Frozen tumors were crushed, treated with 500 µl of RNAlater, then frozen at -80 °C. To extract RNA, the samples were thawed on ice, and 500 µl of buffer RLT (QIAGEN Cat. No. 79219) was added and samples were homogenized. Following centrifugation, RNA was isolated using a QIAGEN RNeasy Plus Mini Kit (Cat No. 74134), according to the manufacturer’s instructions. Quality was checked on nanodrop (ND-1000) and the quantity of RNA was determined on Qubit 4 flourometer. To prepare for sequencing, samples were processed using an Illumnia TruSeq® Stranded mRNA Library Prep kit with Illumina TruSeq RNA Single Indexes Set A and Set B barcoding kits. An Illumnia NovaSeq 6000 S1 Reagent Kit v1.5 was used to make RNA libraries along with a NovaSeq XP 2-Lane Kit v1.5. RNA libraries were sequenced on NovaSeq 6000.
Demultiplexed fastq files for all samples were first processed with FastQC for general quality control. All the samples in the sequencing run passed read level QC with at least 17 million reads per sample. Average read depth across all samples were 51 million reads. Raw illumina BCL data was demultiplexed using Illumina bcl2fastq2 v2.20. Gene expression counts were quantified using salmon-v.1.1.0 [76] for all samples sequenced. Differential gene expression analysis was performed using the R software package edgeR[77]. Differential gene expression analysis was performed on all groups of Tumor+/-Drug+/-RT combinations. Gene set enrichment analysis was performed using GSEA v4.3.2 Preranked method[78],[79]. The following genesets; c3.all.v2023.2.Hs.symbols.gmt, c5.all.v2023.2.Hs.symbols.gmt, c7.all.v2023.2.Hs.symbols.gmt from Molecular Signatures Database (gsea-msigdb.org) were used for enrichment analysis.

[4] = Toxicity observation in treated mice; assay type: in vivo; conditions: mice treated with oral VIR3
Enpp1 [5] = molecular target: T2, Enpp1 (Homo sapiens, UniProt P22413); test: Selectivity and specificity for Enpp1 (statement); conditions: additional studies necessary to confirm in vivo
T2 sequence (P22413 1-925): T1 sequence (P22413 1-925)

Enpp1 [6] = molecular target: T2, Enpp1; test: Enzymatic inhibition of recombinant ENPP1 cGAMP hydrolysis (AMP-Glo); assay type: biochemical; design: purchased R&D Systems 6136-EN-010; conditions: recombinant ENPP1 1.5 nM, 20 uM 2'3'-cGAMP; value is the lower threshold of the assay
Procedure: as §1

Which EC50 [1] does the source give for `COc1ccc2c(Nc3ccc(S(=N)(=O)NCC(C)O)cc3)ccnc2c1` (centres unmarked) [VIR3] here?
The EC50 was 6.7 nM.

And the “Cmax, total” value ([2]; P.O. 60 mg/kg)?
The value was 795 ng/mL.

And the “oral bioavailability (in words)” value ([2]; comparing IV and PO routes)?
Its value is “low”.

What about the half-life ([2]; female, C57BL6, plasma, iv, I.V. 1 mg/kg) of the same compound?
Its half-life is 48.3 h.

What about the clearance ([2]; female, C57BL6, plasma, iv, I.V. 1 mg/kg, approximate given extrapolation from a portion of AUCinf) of the same compound?
Its clearance is roughly 27.7 mL/min/kg.

And the Vd ([2]; female, C57BL6, plasma, iv, I.V. 1 mg/kg, read-out: Vss)?
Its Vd is 52.5 L/kg.

And the bioavailability ([2]; female, C57BL6, plasma, oral, P.O. 60 mg/kg vs I.V. 1 mg/kg)?
The bioavailability was 5.7%.

And the half-life ([2]; female, C57BL6, plasma, po, P.O. 60 mg/kg)?
The half-life was 24.3 h.

What about the AUC(0-t) ([2]; female, C57BL6, plasma, po, P.O. 60 mg/kg, read-out: AUC0-last, total) of the same compound?
Its AUC(0-t) is 1420 ng·h/mL.

And the “response to radiation therapy (survival), VIR3 + RT” value (MC38 tumors; MC38 tumors in C57BL/6 mice, daily oral gavage for 21 days, 12 Gy on second day of dosing)?
Its value is “significantly improved the response to radiation therapy”.

And the “tumor growth, VIR3 alone” value (MC38 tumors; MC38 tumors in C57BL/6 mice, daily oral gavage for 21 days, no RT)?
Its value is “did not impact tumor growth alone”.

And the “response to RT + VIR3 with loss of IFNAR1 in host cells” value (MC38 tumors; MC38 tumors in IFNAR1-/- mice)?
The value was “completely abrogated all responses to treatment”.

And the “tumor control by RT + VIR3 with loss of STING in host cells” value (MC38 tumors; MC38 tumors in STING-/- mice, no statistically significant difference in survival by logrank test)?
The value was “fewer mice cured”.

What about the “tumor control by RT + VIR3 with CD8 depletion” value (MC38 tumors; MC38 tumors, wt mice, anti-CD8 given) of the same compound?
The value was “abrogated tumor control”.

And the “response to radiation therapy (survival), VIR3 + RT” value (CT26 tumors; 12 Gy on day 14)?
The value was “significantly improved the response to radiation therapy”.

And the “tumor growth, VIR3 alone” value (CT26 tumors; no RT)?
Its value is “did not impact tumor growth alone”.

What about the “dendritic cells (cDC1, cDC2) in tumor, VIR3 alone” value [3] of the same compound?
Its value is “can cause DC loss”.

And the “Cdkn1a and Ccl2 gene expression in tumor” value (MC38 and CT26 tumors; CT26 and MC38 tumors)?
Its value is “not impacted”.

And the “Tsc33d3 gene expression in tumor” value (MC38 and CT26 tumors; both CT26 and MC38 tumors)?
Its value is “upregulated”.

And the “Wee1 gene expression in tumor” value (MC38 and CT26 tumors; untreated and irradiated CT26 and MC38 tumors, FDR correction)?
The value was “significantly regulated”.

What about the toxicity [4] of the same compound?
Its toxicity is “toxicity was not observed”.

And the “selectivity and specificity for Enpp1” value (Enpp1 [5])?
Its value is “high selectivity and specificity”.

And the IC50 (Enpp1 [6])?
Its IC50 is less than 0.75 nM.
